Data taken from patent US11167162B2 (priority 2017, dated 2021).
Several values for one entry are separate records, joined by “and”; a condition that tells them apart may be missing. Identical values can stand only once.

Test system: Fecal coliforms
Assay type: cell-based

## CC(=O)OO [A, peroxyacetic acid]
  Category: >1000 and <1000
